Laboratory results from patent US12358911B2, “Heterocyclic comipound as CDK-HDAC dual pathway inhibitor” (Hangzhou Innogate Pharma Co., Ltd., priority 2018, dated 2025).
pIC50: −log10 of the molar value.

Legend:
Format in all cases: biochemical
[1] = molecular target: CDK4/CycD3 (Homo sapiens (Human), UniProt P11802); assay: CDK4 kinase assay (Mobility Shift Assay); conditions: 28° C.
Procedure: (§1) • Method 1: In vitro enzymatic activity of the CDK isoforms CDK2/CycA2, CDK4/CycD3 and CDK6/cycD3 were measured using Mobility Shift Assay that monitors phosphorylation ratio of FAM labelled peptide (Peptide 18 for CDK2/CycA2, Peptide 8 for CDK4/CycD3). CDK2/CycA2 and CDK6/CycD3 were assayed under buffer conditions in the presence of 50 mM HEPES (pH 7.5), 10 mM MgCl2, 0.0015% Brij-35 and 2 mM dithiothreitol; CDK4/CycD3 with buffer condition of 20 mM HEPES (pH 7.5), 10 mM MgCl2, 0.01% Triton X-100 and 2 mM dithiothreitol. Prepare compounds to 50× of the final desired highest inhibitor concentration by 100% DMSO and serial dilution in 3-fold for total of 10 concentrations. For each isoform, dosage of enzyme and substrate are CDK2/CycA2 12 nM, ATP Km 39 μM; CDK4/CycD3 10 nM, ATP Km 221 μM; CDK6/cycD3 15 nM, ATP Km 800 μM. After assay for 60 min, 180 min, 60 min respectively at 28° C., reactions were terminated with stop solution (50 mM EDTA, 0.015% Brij-35, 0.2% Coating Reagent #3 and 100 mM HEPES (pH 7.5)). Collect conversion on Caliper EZ Reader. IC50 values were calculated by fitting the dose-response curves with Xlfit excel add-in version 4.3.1. • Method 2: In vitro enzymatic activity of the CDK isoforms CDK2/CycA2, CDK4/CycD3 and CDK6/CycD3 were measured using Mobility Shift Assay that monitors phosphorylation ratio of FAM labelled peptide (Peptide 18 for CDK2/CycA2, Peptide 8 for CDK4/CycD3 and CDK6/CycD3). CDK2/CycA2, CDK4/CycD3 and CDK6/cycD3 were assayed under buffer conditions in the presence of 50 mM HEPES (pH 7.5), 10 mM MgCl2, 0.0015% Brij-35 and 2 mM dithiothreitol. Prepare compounds to 100× of the final desired highest inhibitor concentration by 100% DMSO and serial dilution in 3-fold for total of 10 concentrations, each concentration contains 1% DMSO. […] After assay for 30 min, 150 min, 150 min respectively at 28° C., reactions were terminated with stop solution (50 mM EDTA, 0.015% Brij-35, 0.2% Coating Reagent #3 and 100 mM HEPES (pH 7.5)). Collect conversion on Caliper EZ Reader. IC50 values were calculated by fitting the dose-response curves with GraphPad Prism V5.0.

[2] = molecular target: CDK6/CycD3 (Homo sapiens (Human), UniProt Q00534); assay: CDK6 kinase assay (Mobility Shift Assay); conditions: 28° C.
Chain of CDK6/CycD3 (Q00534 whole entry, species assumed): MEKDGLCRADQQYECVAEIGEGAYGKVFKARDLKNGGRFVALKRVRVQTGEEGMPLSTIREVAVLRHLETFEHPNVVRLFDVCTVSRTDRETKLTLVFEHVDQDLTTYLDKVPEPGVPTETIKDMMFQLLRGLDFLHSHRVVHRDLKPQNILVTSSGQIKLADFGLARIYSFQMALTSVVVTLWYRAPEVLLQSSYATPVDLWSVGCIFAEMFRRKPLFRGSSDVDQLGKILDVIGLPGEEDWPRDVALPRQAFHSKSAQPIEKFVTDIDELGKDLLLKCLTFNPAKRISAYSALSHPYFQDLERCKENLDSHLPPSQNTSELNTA
Chain of CDK6/CycD3 (P30281 whole entry partner, species assumed): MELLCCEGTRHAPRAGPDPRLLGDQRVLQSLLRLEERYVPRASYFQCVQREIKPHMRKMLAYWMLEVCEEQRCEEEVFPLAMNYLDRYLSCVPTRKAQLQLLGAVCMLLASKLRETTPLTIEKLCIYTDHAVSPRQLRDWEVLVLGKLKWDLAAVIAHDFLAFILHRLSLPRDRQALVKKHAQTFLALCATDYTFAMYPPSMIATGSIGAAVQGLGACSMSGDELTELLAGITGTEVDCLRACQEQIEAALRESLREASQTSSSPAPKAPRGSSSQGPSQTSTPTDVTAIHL
Procedure: as §1

[3] = molecular target: recombinant, full-length HDAC-1 (Homo sapiens (Human), UniProt Q13547); assay: HDAC-1 assay (fluorogenic Ac-peptide-AMC)
Chain of recombinant, full-length HDAC-1 (Q13547 whole entry): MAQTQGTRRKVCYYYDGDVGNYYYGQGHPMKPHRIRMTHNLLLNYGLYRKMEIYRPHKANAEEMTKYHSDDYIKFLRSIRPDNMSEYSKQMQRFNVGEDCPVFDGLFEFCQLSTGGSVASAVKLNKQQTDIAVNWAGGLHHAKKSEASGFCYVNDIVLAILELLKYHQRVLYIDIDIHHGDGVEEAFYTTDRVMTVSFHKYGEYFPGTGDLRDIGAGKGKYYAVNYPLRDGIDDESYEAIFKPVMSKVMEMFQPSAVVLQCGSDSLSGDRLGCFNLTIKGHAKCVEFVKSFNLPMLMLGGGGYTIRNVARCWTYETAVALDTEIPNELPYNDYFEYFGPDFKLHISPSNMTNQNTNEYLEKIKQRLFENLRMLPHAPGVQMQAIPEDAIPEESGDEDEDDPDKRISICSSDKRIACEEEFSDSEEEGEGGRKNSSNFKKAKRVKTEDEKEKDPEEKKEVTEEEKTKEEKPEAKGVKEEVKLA
Procedure: (§2) 2. HDAC-1 and HDAC-6 Assays: • Method 1: The inhibitory effect of compounds on HDAC-1 and HDAC-6 function was determined in vitro using an optimized homogenous assay performed in 384-well plate format. In this assay, recombinant, full-length HDAC-1 or HDAC-6 protein (BPS Biosciences) was incubated with Ac-peptide-AMC with concentration in Km plot. Reactions were performed in Tris-based assay buffer and followed for fluorogenic release of 7-amino-4-methylcoumarin from substrate upon deacetylase and trypsin enzymatic activity. Fluorescence measurements were obtained using a multilabel plate reader (Synergy MX with excitation at 355 nm and emission at 460 nm.). Data were analyzed on a plate-by-plate basis for the linear range of fluorescence over time. Fit the data in GraphPad Prism V5.0 software to obtain ICso values using equation (Y=Bottom+(Top−Bottom)/(1+10^((Log IC50−X)*Hill Slope), Y is % inhibition and X is compound concentration).
as §2, with “The testing results of the representative compounds are listed in Table 1 below. •” for “2. HDAC-1 and HDAC-6 Assays: •”, “Method 2:” for “Method 1:”, “HDAC-1 (Active Motif) and” for “HDAC-1 or”, “(Synergy” for “(Synergy MX”, “obtain IC50” for “obtain ICso”

[4] = molecular target: recombinant, full-length HDAC-6 (Homo sapiens (Human), UniProt Q9UBN7); assay: HDAC-6 assay (fluorogenic Ac-peptide-AMC)
Chain of recombinant, full-length HDAC-6 (Q9UBN7 whole entry): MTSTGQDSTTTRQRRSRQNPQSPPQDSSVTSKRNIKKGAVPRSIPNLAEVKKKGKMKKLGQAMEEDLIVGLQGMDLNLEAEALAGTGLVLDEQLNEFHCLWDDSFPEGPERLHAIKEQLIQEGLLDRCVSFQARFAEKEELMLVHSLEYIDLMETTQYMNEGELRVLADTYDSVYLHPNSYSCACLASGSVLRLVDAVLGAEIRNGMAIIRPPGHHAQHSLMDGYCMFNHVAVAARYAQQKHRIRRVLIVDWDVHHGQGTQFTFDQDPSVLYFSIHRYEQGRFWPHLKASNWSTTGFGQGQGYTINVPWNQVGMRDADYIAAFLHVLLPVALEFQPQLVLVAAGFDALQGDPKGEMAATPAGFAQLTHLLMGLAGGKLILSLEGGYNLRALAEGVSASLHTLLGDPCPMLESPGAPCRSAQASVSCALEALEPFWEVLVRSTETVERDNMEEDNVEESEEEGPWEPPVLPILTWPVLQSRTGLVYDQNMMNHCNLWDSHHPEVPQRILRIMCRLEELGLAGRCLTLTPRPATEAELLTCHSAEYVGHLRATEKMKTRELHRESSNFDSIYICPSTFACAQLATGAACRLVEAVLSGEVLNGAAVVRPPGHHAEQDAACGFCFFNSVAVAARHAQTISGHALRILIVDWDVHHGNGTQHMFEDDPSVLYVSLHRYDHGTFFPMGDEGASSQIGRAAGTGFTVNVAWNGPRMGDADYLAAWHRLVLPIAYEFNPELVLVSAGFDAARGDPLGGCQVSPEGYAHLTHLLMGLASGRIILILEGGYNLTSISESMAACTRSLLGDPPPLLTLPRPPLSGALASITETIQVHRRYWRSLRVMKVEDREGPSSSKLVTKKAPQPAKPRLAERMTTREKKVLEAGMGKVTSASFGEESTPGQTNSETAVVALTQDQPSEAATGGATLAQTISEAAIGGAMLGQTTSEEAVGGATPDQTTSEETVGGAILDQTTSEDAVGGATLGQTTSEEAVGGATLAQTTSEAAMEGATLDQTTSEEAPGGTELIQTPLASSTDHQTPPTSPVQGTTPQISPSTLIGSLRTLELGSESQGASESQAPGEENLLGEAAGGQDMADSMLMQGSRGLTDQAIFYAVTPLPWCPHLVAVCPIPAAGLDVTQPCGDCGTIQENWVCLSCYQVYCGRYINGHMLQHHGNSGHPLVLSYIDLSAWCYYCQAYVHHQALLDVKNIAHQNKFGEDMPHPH
Procedure: as §2
as §2, with “The testing results of the representative compounds are listed in Table 1 below. •” for “2. HDAC-1 and HDAC-6 Assays: •”, “Method 2:” for “Method 1:”, “HDAC-1 (Active Motif) and” for “HDAC-1 or”, “(Synergy” for “(Synergy MX”, “obtain IC50” for “obtain ICso”

[5] = molecular target: CDK2/CycA2 (Homo sapiens (Human), UniProt P24941); assay: CDK2 kinase assay (Mobility Shift Assay); conditions: 28° C.
Procedure: as §1

[6] = method 1: CDK4/CycD3 10 nM, ATP Km 221 μM, 180 min
[7] = method 1: CDK6/cycD3 15 nM, ATP Km 800 μM, 60 min
[8] = method 1: HDAC-1 protein (BPS Biosciences)
[9] = method 1: HDAC-6 protein (BPS Biosciences)
[10] = method 1: CDK2/CycA2 12 nM, ATP Km 39 μM, 60 min
[11] = method 2: CDK4/CycD3 10 nM, ATP Km 250 μM, 150 min
[12] = method 2: CDK6/cycD3 5 nM, ATP Km 550 μM, 150 min
[13] = method 2: HDAC-1 (Active Motif)
[14] = method 2: HDAC-6 protein (BPS Biosciences)
[15] = method 2: CDK2/CycA2 2.5 nM, ATP Km 17 μM, 30 min

Chain of CDK4/CycD3 (P11802 whole entry, species assumed, canonical isoform): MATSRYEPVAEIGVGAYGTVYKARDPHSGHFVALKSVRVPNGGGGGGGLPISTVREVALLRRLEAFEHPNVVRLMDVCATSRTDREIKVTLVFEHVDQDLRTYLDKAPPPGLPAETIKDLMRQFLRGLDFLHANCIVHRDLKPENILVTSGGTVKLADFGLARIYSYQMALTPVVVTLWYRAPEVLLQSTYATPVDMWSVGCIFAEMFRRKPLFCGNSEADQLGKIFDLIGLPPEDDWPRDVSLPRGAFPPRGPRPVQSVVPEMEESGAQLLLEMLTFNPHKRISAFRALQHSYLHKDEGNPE
Chain of CDK4/CycD3 (P30281 whole entry partner, species assumed, canonical isoform): as the sequence (P30281 whole entry partner, species assumed) above

pIC50 [1, 6] | pIC50 [2, 7] | pIC50 [3, 8] | pIC50 [4, 9] | pIC50 [5, 10] | pIC50 [1, 11] | pIC50 [2, 12] | pIC50 [3, 13] | pIC50 [4, 14] | pIC50 [5, 15] | SMILES
– | – | – | – | – | 7.60 to 8.00 | 7.30 to 7.60 | 7.12 to 7.30 | 7.00 to 7.12 | < 5.70 | CC(=O)c1c(C)c2cnc(Nc3ccc(N(C)CCN(C)c4ccc(C(=O)NO)cn4)cn3)nc2n(C2CCCC2)c1=O [Compound 3, 6-((2-((6-((6-acetyl-8-cyclopentyl-5-methyl-7-oxo-7,8-dihydropyrido[2,3-d]pyrimidin-2-yl)amino)pyridin-3-yl)(methyl)amino)ethyl)(methyl)amino)-N-hydroxynicotinamide]
– | – | – | – | – | ≥ 8.00 | 7.30 to 7.60 | – | – | < 5.30 | CC(=O)c1c(C)c2cnc(Nc3ccc(N(C)CCN(C)c4ccc(C(=O)NO)nc4)cn3)nc2n(C2CCCC2)c1=O [Compound 4, 5-((2-((6-((6-acetyl-8-cyclopentyl-5-methyl-7-oxo-7,8-dihydropyrido[2,3-d]pyrimidin-2-yl)amino)pyridin-3-yl)(methyl)amino)ethyl)(methyl)amino)-N-hydroxypicolinamide]
– | – | – | – | – | ≥ 8.00 | 7.30 to 7.60 | – | – | < 5.30 | CC(=O)c1c(C)c2cnc(Nc3ccc(N(C)CCN(C)c4ccc(C(=O)NO)cc4)cn3)nc2n(C2CCCC2)c1=O [Compound 8, 4-((2-((6-((6-acetyl-8-cyclopentyl-5-methyl-7-oxo-7,8-dihydropyrido[2,3-d]pyrimidin-2-yl)amino)pyridin-3-yl) (methyl)amino)ethyl) (methyl)amino)-N-hydroxybenzamide]

Second part, the compound before the results:

SMILES | pIC50 [1, 6] | pIC50 [2, 7] | pIC50 [3, 8] | pIC50 [4, 9] | pIC50 [5, 10] | pIC50 [1, 11] | pIC50 [2, 12] | pIC50 [3, 13] | pIC50 [4, 14] | pIC50 [5, 15]
CC(=O)c1c(C)c2cnc(Nc3ccc(N(C)CCN(C)c4ncc(C(=O)NO)cn4)cn3)nc2n(C2CCCC2)c1=O [Compound 1, 2-((2-((6-((6-acetyl-8-cyclopentyl-5-methyl-7-oxo-7,8-dihydropyrido[2,3-d]pyrimidin-2-yl)amino)pyridin-3-yl) (methyl)amino)ethyl) (methyl)amino)-N-hydroxypyrimidine-5-carboxamide] | ≥ 8.00 | 7.30 to 7.60 | 8.00 to 8.30 | 7.30 to 8.00 | < 5.00 | – | – | – | – | –
CC(=O)c1c(C)c2cnc(Nc3ccc(N(C)Cc4ccc(/C=C/C(=O)NO)cc4)cn3)nc2n(C2CCCC2)c1=O [Compound 2, (E)-3-(4-(((6-((6-acetyl-8-cyclopentyl-5-methyl-7-oxo-7,8-dihydropyrido[2,3-d]pyrimidin-2-yl)amino)pyridin-3-yl)(methyl)amino)methyl)phenyl)-N-hydroxyacrylamide] | 7.60 to 8.00 | 7.00 to 7.30 | 7.30 to 8.00 | 7.12 to 7.30 | < 5.70 | – | – | – | – | –
CC(=O)c1c(C)c2cnc(Nc3ccc(OCCN(C)c4ccc(C(=O)NO)cn4)cn3)nc2n(C2CCCC2)c1=O [Compound 5, 6-((2-((6-((6-acetyl-8-cyclopentyl-5-methyl-7-oxo-7,8-dihydropyrido[2,3-d]pyrimidin-2-yl)amino)pyridin-3-yl)oxy)ethyl)(methyl)amino)-N-hydroxynicotinamide] | – | – | – | – | – | ≥ 8.00 | 7.30 to 7.60 | ≥ 8.30 | 8.00 to 8.30 | < 5.70
CC(=O)c1c(C)c2cnc(Nc3ccc(N4CCC(C(=O)NO)CC4)cn3)nc2n(C2CCCC2)c1=O [Compound 7, 1-(6-((6-acetyl-8-cyclopentyl-5-methyl-7-oxo-7,8-dihydropyrido[2,3-d]pyrimidin-2-yl)amino)pyridin-3-yl)-N-hydroxypiperidine-4-carboxamide] | – | – | – | – | – | ≥ 8.00 | 7.30 to 7.60 | – | – | < 5.70
CC(=O)c1c(C)c2cnc(Nc3ccc(N(C)CCCCCCC(=O)NO)cn3)nc2n(C2CCCC2)c1=O [Compound 9, 7-((6-((6-acetyl-8-cyclopentyl-5-methyl-7-oxo-7,8-dihydropyrido[2,3-d]pyrimidin-2-yl)amino)pyridin-3-yl)(methyl)amino)-N-hydroxyheptanamide] | – | – | – | – | – | 7.60 to 8.00 | 7.30 to 7.60 | 8.00 to 8.30 | 7.30 to 8.00 | < 5.30
CC(=O)c1c(C)c2cnc(Nc3ccc(OCCN(C)c4ncc(C(=O)NO)cn4)cn3)nc2n(C2CCCC2)c1=O [Compound 10, 2-((2-((6-((6-acetyl-8-cyclopentyl-5-methyl-7-oxo-7,8-dihydropyrido[2,3-d]pyrimidin-2-yl)amino)pyridin-3-yl)oxy)ethyl)(methyl)amino)-N-hydroxypyrimidine-5-carboxamide] | – | – | – | – | – | 7.60 to 8.00 | 7.30 to 7.60 | ≥ 8.30 | 7.30 to 8.00 | < 5.00
